According to patent publication US20230339981A1, “KRAS G12D MODULATING COMPOUNDS” (priority 2022, published 2023):

Columns and labels:
AsPC-1 (KRAS G12D) cells = assay: 3D cell viability assay (spheroids, CellTiter-Glo 3D); assay type: cell-based; settings: Homo sapiens, ASPC1, 96 h, AsPC-1 cells, 3D spheroids, 4 days
Method: Example C. 3D Cell Viability Assay
Compounds were tested in a 384-well format for their ability to inhibit the viability of AsPC-1 (KRAS G12D) cells in 3D assays. On day 0, 1000 cells/well (80 μL volume per well) in DMEM with 10% FBS, and Penicillin-Streptomycin-Glutamine were plated in 384-well Ultra-Low Attachment Spheroid Microplates (Corning, Catalog #3830) on the BioTEK EL406 liquid dispenser with a 5 μL dispensing cassette (BioTek 7170011). The plates were incubated at 37° C., 5% CO2 for 3 days to allow spheroid formation. On day 3, compounds were serially diluted (1:3) in DMSO. The Biomek FX was used to add 400 nL of test molecule per well. The plates were incubated at 37° C., 5% CO2 for 4 days before addition of CellTiter-Glo 3D (Promega, Catalog #9683) reagent and measurement of luminescence signal. EC50 values were defined as the compound concentration that causes a 50% decrease in luminescence signal and were calculated using a sigmoidal dose-response model to generate curve fits.

GDP-loaded KRAS G12D = GDP-loaded KRAS G12D (Homo sapiens (Human), UniProt P01116, G12D); assay: KRAS G12D (GDP) biochemical assay (TR-FRET probe displacement); assay type: binding; settings: 2 hours
Summary of the method: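 Compound pre-incubated 30 min with GDP-loaded KRAS G12D in 50 mM Hepes pH 7.4, 150 mM NaCl, 5 mM MgCl2, 0.005% Tween-20, then Eu-streptavidin and TR-FRET probe added. After 2 h at room temperature, TR-FRET ratio read; IC50 is 50% ratio decrease, sigmoidal fit.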

GP2D (KRAS G12D) cells = assay: 2D cell viability assay (CellTiter-Glo); assay type: cell-based; settings: GP2d, 96 h, 4 days
Summary of the method: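 GP2D (KRAS G12D) cells, 1000/well in RPMI + 10% FBS, were plated onto compound (1:3 DMSO series) and grown 4 days at 37 °C, 5% CO2 in 2D. CellTiter-Glo luminescence was read; EC50 is the concentration giving 50% signal decrease, from sigmoidal fit.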

Chain of GDP-loaded KRAS G12D (P01116-2 other isoform, or with tags, fused parts or gaps G12D): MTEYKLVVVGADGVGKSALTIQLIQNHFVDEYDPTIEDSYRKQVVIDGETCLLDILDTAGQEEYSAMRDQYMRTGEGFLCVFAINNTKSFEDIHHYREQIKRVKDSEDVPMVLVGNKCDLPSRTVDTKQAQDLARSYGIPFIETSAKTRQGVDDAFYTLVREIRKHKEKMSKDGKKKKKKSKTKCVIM

Compound	EC50 (AsPC-1 (KRAS G12D) cells) [nM]	IC50 (GDP-loaded KRAS G12D) [nM]	EC50 (GP2D (KRAS G12D) cells) [nM]
C#Cc1c(F)ccc2cc(O)cc(-c3nc4c5c(nc(OC[C@@]67CCCN6C[C@H](F)C7)nc5c3F)N3C[C@H]5CC[C@H](N5)[C@H]3CO4)c12 [Example 2, 5-ethynyl-6-fluoro-4-((5aS,6S,9R)-1-fluoro-12-(((2R,7aS)-2-fluorotetrahydro-1H-pyrrolizin-7a(5H)-yl)methoxy)-5a,6,7,8,9,1O-hexahydro-5H-4-oxa-3,10a,11,13,14-pentaaza-6,9-methanonaphtho[1,8-ab]heptalen-2-yl)naphthalen-2-ol]	42	0.2	6
Oc1cc(-c2nc3c4c(nc(OC[C@@]56CCCN5C[C@H](F)C6)nc4c2F)N2C[C@H]4CC[C@H](N4)[C@H]2CC3)c2ccccc2c1 [Example 24, 4-((5aR,6S,9R)-1-fluoro-12-(((2R,7aS)-2-fluorotetrahydro-1H-pyrrolizin-7a(5H)-yl)methoxy)-4,5,5a,6,7,8,9,10-octahydro-3,10a,11,13,14-pentaaza-6,9-methanonaphtho[1,8-ab]heptalen-2-yl)naphthalen-2-ol]	190	1	17
C#Cc1c(F)ccc2cccc(-c3nc4c5c(nc(OC[C@@]67C[C@@H](F)CN6CC6(CC6)C7)nc5c3F)N3C[C@H]5CC[C@H](N5)[C@H]3CC4)c12 [Example 113, (5aR,6S,9R)-2-(8-ethynyl-7-fluoronaphthalen-1-yl)-1-fluoro-12-(((6′R,7a′R)-6′-fluorodihydro-1′H,3′H-spiro[cyclopropane-1,2′-pyrrolizin]-7a′(5′H)-yl)methoxy)-4,5,5a,6,7,8,9,10-octahydro-3,10a,11,13,14-pentaaza-6,9-methanonaphtho[1,8-ab]heptalene]	57	0.2	7.3
C#Cc1c(F)ccc2cc(O)cc(-c3nc4c5c(nc(OC[C@@]67CCCN6C[C@H](F)C7)nc5c3F)N3C[C@@]5(C)CC[C@H](N5)[C@H]3CC4)c12 [Example 190, 5-ethynyl-6-fluoro-4-((5aR,6S,9R)-1-fluoro-12-(((2R,7aS)-2-fluorotetrahydro-1H-pyrrolizin-7a(5H)-yl)methoxy)-9-methyl-4,5,5a,6,7,8,9,10-octahydro-3,10a,11,13,14-pentaaza-6,9-methanonaphtho[1,8-ab]heptalen-2-yl)naphthalen-2-ol]	7.9	0.1	1.5
C#Cc1c(F)ccc2cc(O)cc(-c3nc4c5c(nc(OCC6(CN7CCC8(CC7)CC8(F)F)CC6)nc5c3F)N3C[C@H]5CC[C@H](N5)[C@H]3CC4)c12 [Example 185, 4-((5aR,6S,9R)-12-((1-((1,1-difluoro-6-azaspiro[2.5]octan-6-yl)methyl)cyclopropyl)methoxy)-1-fluoro-4,5,5a,6,7,8,9,10-octahydro-3,10a,11,13,14-pentaaza[6,9]methanonaphtho[1,8-ab]heptalen-2-yl)-5-ethynyl-6-fluoronaphthalen-2-ol]	23.1	0.4	2.7
C#Cc1c(F)ccc2cc(O)cc(-c3nc4c5c(nc(OC[C@@]67CCCN6[C@H](COc6cccc(S(F)(F)(F)(F)F)c6)CC7)nc5c3F)N3C[C@H]5CC[C@H](N5)[C@H]3CC4)c12 [Example 104, 5-ethynyl-6-fluoro-4-((5aR,6S,9R)-1-fluoro-12-(((3S,7aS)-3-((3-(pentafluoro-λ6-sulfaneyl)phenoxy)methyl)tetrahydro-1H-pyrrolizin-7a(5H)-yl)methoxy)-4,5,5a,6,7,8,9,10-octahydro-3,10a,11,13,14-pentaaza-6,9-methanonaphtho[1,8-ab]heptalen-2-yl)naphthalen-2-ol]	53	0.8	8.7
CCc1c(F)ccc2cc(O)cc(-c3cc4c5c(nc(OC[C@@]67CCCN6C[C@H](F)C7)nc5c3F)N3C[C@H]5CC[C@H](N5)[C@H]3CC4)c12 [Example 128, 5-ethyl-6-fluoro-4-((1S,4R,14aR)-10-fluoro-8-(((2R,7aS)-2-fluorotetrahydro-1H-pyrrolizin-7a(5H)-yl)methoxy)-1,2,3,4,5,13,14,14a-octahydro-1,4-epiminoazepino[1′,2′:1,7]azepino[2,3,4-de]quinazolin-11-yl)naphthalen-2-ol]	59	0.2	4.1
C#Cc1c(F)ccc2cc(O)cc(-c3nc4c5c(nc(OCC6(CN7CCC(OC)(C(F)(F)F)CC7)CC6)nc5c3F)N3C[C@H]5CC[C@H](N5)[C@H]3CC4)c12 [Example 168, 5-ethynyl-6-fluoro-4-((5aR,6S,9R)-1-fluoro-12-((1-((4-methoxy-4-(trifluoromethyl)piperidin-1-yl)methyl)cyclopropyl)methoxy)-4,5,5a,6,7,8,9,10-octahydro-3,10a,11,13,14-pentaaza-6,9-methanonaphtho[1,8-ab]heptalen-2-yl)naphthalen-2-ol]	24	0.2	0.5
C#Cc1c(F)ccc2cccc(-c3nc4c5c(nc(OC[C@@]67CCCN6C[C@H](F)C7)nc5c3F)N3C[C@H]5CC[C@H](N5)[C@H]3C[C@@H]4F)c12 [Example 172, (4S,5aR,6S,9R)-2-(8-ethynyl-7-fluoronaphthalen-1-yl)-1,4-difluoro-12-(((2R,7aS)-2-fluorotetrahydro-1H-pyrrolizin-7a(5H)-yl)methoxy)-4,5,5a,6,7,8,9,10-octahydro-3,10a,11,13,14-pentaaza-6,9-methanonaphtho[1,8-ab]heptalene]	480	3.5	65.3
C#Cc1c(F)ccc2cccc(-c3nc4c5c(nc(OC[C@@]67CCCN6[C@H](CF)CC7)nc5c3F)N3C[C@H]5CC[C@H](N5)[C@H]3CC4)c12 [Example 166, (5aR,6S,9R)-2-(8-ethynyl-7-fluoronaphthalen-1-yl)-1-fluoro-12-(((3S,7aS)-3-(fluoromethyl)tetrahydro-1H-pyrrolizin-7a(5H)-yl)methoxy)-4,5,5a,6,7,8,9,10-octahydro-3,10a,11,13,14-pentaaza-6,9-methanonaphtho[1,8-ab]heptalene]	110	0.3	3.5
Oc1cc(-c2nc3c4c(nc(OC[C@@]56CCCN5C[C@H](F)C6)nc4c2F)N2C[C@H]4CC[C@H](N4)[C@H]2CC3)c2c(OC(F)(F)F)c(F)ccc2c1 [Example 41, 6-fluoro-4-((5aR,6S,9R)-1-fluoro-12-(((2R,7aS)-2-fluorotetrahydro-1H-pyrrolizin-7a(5H)-yl)methoxy)-4,5,5a,6,7,8,9,10-octahydro-3,10a,11,13,14-pentaaza-6,9-methanonaphtho[1,8-ab]heptalen-2-yl)-5-(trifluoromethoxy)naphthalen-2-ol]	8	0.6	3
C#Cc1c(F)ccc2cccc(-c3nc4c5c(nc(OC[C@@]67CCCN6[C@H](COC(C)(C)C)CC7)nc5c3F)N3C[C@H]5CC[C@H](N5)[C@H]3CC4)c12 [Example 119, (5aR,6S,9R)-12-(((3S,7aS)-3-(tert-butoxymethyl)tetrahydro-1H-pyrrolizin-7a(5H)-yl)methoxy)-2-(8-ethynyl-7-fluoronaphthalen-1-yl)-1-fluoro-4,5,5a,6,7,8,9,10-octahydro-3,10a,11,13,14-pentaaza-6,9-methanonaphtho[1,8-ab]heptalene]	390	2.4	125
